# “Also recorded” adds a separate entry of the source.
# What was measured:
# CuFi-1 epithelia = experiment: Lactate dehydrogenase (LDH) cytotoxicity assay; format: cell-based, human; conditions: single AmB treatment, increasing time periods
# Description: Small diameter CuFi-1 cultured epithelia were used for this experiment (0.33 cm^2). An LDH Cytotoxicity Assay Kit (Cayman Chemical) was used to determine if AmB is toxic to CuFi-1 airway epithelia. Prior to treatment, media was removed from the basolateral side of epithelia and replaced with 500 µL of fresh USG media. Cultured epithelia were then treated with FC-72 vehicle, 2 and 50 μM AmB administered in perfluorocarbon (FC-72, Sigma) for 48 hours, 7 days, or 28 days. 48 hours prior to the end of each experiment time frame, basolateral media was changed again and […] of 10% Triton X-100 solution was added to the apical surface to elicit maximum release. On the day of the experiment, assay reagents were prepared according to kit instructions and 500 µL of USG media was added to three empty wells in a 24-well plate for background control. Culture inserts were removed from the wells and 250 µL of LDH Reaction Solution was added to each well. The plate was then gently shaken on an orbital shaker for 30 minutes at 37° C. Absorbance was read at 490 nm using a plate reader. % cytotoxicity was calculated as follows: […]
# [1] = Na+, K+, Cl-, H+ efflux from liposomes; format: biochemical; conditions: 1:1000 AmB:lipid, vs DMSO vehicle
# Description: Palmitoyl oleoyl phosphatidylcholine (POPC) was obtained as a 25 mg/mL solution in CHCl3 from Avanti Polar Lipids (Alabaster, AL) and was stored at −20° C. under an atmosphere of dry argon and used within 3 months. Cholesterol (Sigma Aldrich) was purified by recrystallization from ethanol. NaH^13CO3 was obtained as a white solid from Sigma Aldrich. Sodium, potassium, and chloride measurements were obtained using a Denver Instruments (Denver, CO) Model 225 pH meter equipped with the appropriate ion selective probe inside a Faraday cage. Sodium selective measurements were obtained using an Orion micro sodium electrode (Thermo 9811BN). Potassium selective measurements were obtained with an Orion Potassium Sure-Flow Combination Electrode with Waterproof BNC connector (Thermo 9719BNWP). Chloride selective measurements were obtained using an Orion combination chloride electrode (Thermo 9617BNWP). For sodium efflux experiments, measurements were made on 1.5 mL solutions that were magnetically stirred in 7 mL vials incubated at 23° C. […]
# Prior to preparing a lipid film, this solution was warmed to ambient temperature to prevent condensation from contaminating the solution and degrading the lipid film. […] To obtain a sufficient quantity of large unilamellar vesicles (LUVs), at least two independent lipid film preparations were pooled together for the subsequent formation of LUVs. […]
smiles,measurement,setting,value
"C[C@@H]1[C@H](O)[C@@H](C)/C=C/C=C/C=C/C=C/C=C/C=C/C=C/[C@H](O[C@@H]2O[C@H](C)[C@@H](O)[C@H](N)[C@@H]2O)C[C@@H]2O[C@](O)(C[C@@H](O)C[C@@H](O)[C@H](O)CC[C@@H](O)C[C@@H](O)CC(=O)O[C@H]1C)C[C@H](O)[C@H]2C(=O)O [AmB, amphotericin B]","cytotoxicity (LDH release, percent of total lysis by Triton X)",CuFi-1 epithelia,did not cause increased cytotoxicity as compared to vehicle
same,"transport of potassium, sodium, chloride, protons across a lipid membrane",[1],"known to transport monovalent anions and cations; also recorded: can transport potassium, sodium, chloride, protons and HCO3^−"
